From patent US4629728A, “Antihypoxemic 5-(4-substituted piperazinyl)alkyl-8-substituted quinolines” (ADIR S.A.R.L., priority 1984, dated 1986)
Like-named read-outs stand apart in the source and are kept apart here.

Experiments:
[1] = prolongation of life in acute global ischemic syndrome by intravenous injection of magnesium chloride; type: in vivo; settings: mice; for minimal effective dose: Mus musculus
Protocol: The compounds of general formula I are tested by their capacity to prolong the life of mice submitted to an acute global ischemic syndrome by intravenous injection of magnesium chloride.

[2] = survival in acute global hypoxic syndrome due to inhalation of pure azote; type: in vivo; settings: Mus musculus; mice, intraperitoneal route or per os; read-out: average effective dose (ED50) increasing the survival time by 50% in relation to the control animals
Protocol: In the same way, the compounds of general formula I show a protective effect in mice during an acute global hypoxic syndrome due to inhalation of pure azote. The beneficial action is seen at the same doses as for the previous test. The same effective dose relation is found with the reference substances.
The average effective dose (ED50) increasing the survival time by 50% in relation to the control animals is approximately 3 mg/kg when these compounds are administered by intraperitoneal route or per os particularly with the compounds of Examples 38, 40, 51 and 54 described herein after.

[3] = test system: mitochondrias of the cerebral cortex; assay: oxidative phosphorylation capacity of mitochondrias of the cerebral cortex after an ischemic syndrome; type: in vivo, rats; settings: ischemied rat, reference products
Source text: These same compounds show their pharmacological action vis-a-vis losses of the oxidative phosphorylation capacity of mitochondrias of the cerebral cortex obtained after an ischemic syndrome in rats. […] The same activity is only obtained for the reference products with dihydroergotoxine.

cortical electrogenesis = assay: iterative anoxias test (losses of cortical electrogenesis); type: in vivo; settings: rats, administered intravenously
Protocol: The protective activity vis-a-vis the losses of cortical electrogenesis connected to the ischemic or hypoxic syndrome is evaluated by the iterative anoxias test in rats. […] After the second anoxia, whilst the control animals no longer recuperate their electrocortical activity, the animals treated with the compounds in particular the compounds described in Examples 30, 37, 38, 40 and 54 recover it when they have received by IV perfusion 33 micro g/kg of these. The reference substances only restore it later, at the 120th second for eburnamonine or nicergoline.

[4] = cerebral oedema by hypoperfusion of 1 hour (ischemic syndrome) or by triethyl tin per os; type: in vivo; settings: reference substances
[5] = ip, intraperitoneal route, MgCl2 i.v., read-out: dose from which life of ischemied mice is significantly prolonged

Compound	minimal effective dose [1, 5] [mg/kg]	ED50 [2] [mg/kg]	further results
CC(=O)N1CCCc2c(CCN3CCN(c4ccccn4)CC3)ccc(O)c21 [Example 38, 1-acetyl-5-{2-[4-(2-pyridyl)piperazinyl]ethyl}-8-hydroxy-1,2,3,4-tetrahydro quinoline]	1	~3	–
COc1ccccc1N1CCN(CCc2ccc(O)c3c2CCCN3C)CC1 [Example 51, 1-methyl-5-{2-[4-(2-methoxyphenyl)piperazinyl]ethyl}-8-hydroxy-1,2,3,4-tetrahydro quinoline]	–	~3	–
dihydroergotoxine	–	–	activity on mitochondrial oxygen consumption compared with the compounds [3]: same activity; effective dose per os (inactive up to / no effect below) ([1]; per os, reference substances): > 10 mg/kg; activity in iterative anoxias test compared with the compounds (cortical electrogenesis): comparable activity
CO[C@]12C[C@@H](COC(=O)c3cncc(Br)c3)CN(C)[C@@H]1Cc1cn(C)c3cccc2c13 [nicergoline]	–	–	higher dose needed for equally intense anti-oedema protective activity (relative to the compounds) [4]: 3 times more
CC[C@]12CCCN3CCc4c(n(c5ccccc45)[C@@](O)(C(=O)OC)C1)[C@@H]32 [vincamine, reference compound]	–	–	minimal effective dose ([1]; po, per os, reference substances, read-out: effective dose per os (inactive up to / no effect below)): ≥ 100 mg/kg; higher dose needed for equally intense anti-oedema protective activity (relative to the compounds) [4]: 5 times more
COc1ccccc1N1CCN(CCc2ccc(OC)c3c2CCCN3C=O)CC1 [Example 54, 1-formyl-5-{-2-[4-(2-methoxyphenyl)piperazinyl]ethyl}-8-methoxy-1,2,3,4-tetrahydro quinoline]	1	~3	–
COc1ccccc1N1CCN(CCc2ccc(OS(C)(=O)=O)c3c2CCCN3)CC1 [Example 30, 5-{2-[4-(2-methoxyphenyl)piperazinyl]ethyl}-8-methylsulfonyloxy-1,2,3,4-tetrahydro quinoline]	1	–	–
COc1ccccc1N1CCN(CCc2ccc(OC)c3c2CCCN3C(C)=O)CC1 [Example 40, 1-acetyl-5-{2-[4-(2-methoxyphenyl)piperazinyl]ethyl}-8-methoxy-1,2,3,4-tetrahydro quinoline]	1	~3	–
